One may read the Cmax as the highest concentration seen after dosing. The term clearance denotes the rate of elimination divided by the concentration. High values mean efficient removal, low ones inefficient removal. One may read the Tmax as the time at which the peak concentration occurs. One may read the AUC(0-t) as the area under the concentration-time curve up to a stated or last time point. A higher AUC(0-t) goes with more exposure. A word on the half-life: it is the time in which the quantity being followed falls by half. In general, bioavailability refers to dose-corrected exposure relative to a reference, in per cent.

Consider 15 molecules from ChEMBL document CHEMBL1777780, “Discovery of XEN907, a spirooxindole blocker of NaV1.7 for the treatment of pain” (Bioorg Med Chem Lett, 2011).

Data set [1] is described as follows: Permeability from apical to basolateral side in human Caco2 cells. Type of data set: ADME, cell-based. The following applies: Caco-2, read-out: permeability.
The nature of data set [2]: Permeability from basolateral to apical side in human Caco2 cells. Type of data set: ADME, cell-based. The following applies: Caco-2, read-out: permeability. (Caco-2 monolayers are a common model of the intestinal barrier.)
Data set [3] can be described thus: Metabolic stability in dog hepatocytes assessed as compound remaining after 2 hrs. Type of data set: ADME, cell-based, Canis lupus familiaris, Hepatocyte. The following applies: read-out: Stability.
Data set [4] in a line: Cmax in Lewis rat at 10 mg/kg, po. In kind it is ADME, organism-based. Also noted: dose 10 mg/kg, route oral. The following applies: in vivo.
The nature of data set [5]: Clearance in Lewis rat at 3 mg/kg, iv. In kind it is ADME, organism-based. Also noted: dose 3 mg/kg, route intravenous. The note with it: in vivo.
The nature of data set [6]: Tmax in Lewis rat at 10 mg/kg, po. In kind it is ADME, organism-based. More on the design: dose 10 mg/kg, route oral. The following applies: in vivo.
Data set [7] is described as follows: AUClast in Lewis rat at 10 mg/kg, po. Also noted: time 0 - last, dose 10 mg/kg, route oral. The note with it: plasma. Type of data set: ADME, organism-based.
A short description of data set [8]: Half life in Lewis rat at 3 mg/kg, iv. Type of data set: ADME, organism-based. Also noted: dose 3 mg/kg, route intravenous. The following applies: in vivo.
Data set [9] can be described thus: AUClast in Lewis rat at 3 mg/kg, iv. In kind it is ADME, organism-based. Also noted: time 0 - last, dose 3 mg/kg, route intravenous. The note with it: plasma.
The nature of data set [10]: Cmax in Lewis rat at 3 mg/kg, iv. The note with it: in vivo. Also noted: dose 3 mg/kg, route intravenous. Type of data set: ADME, organism-based.
Data set [11] can be described thus: Volume of distribution at steady state in Lewis rat at 3 mg/kg, iv. In kind it is ADME, organism-based. More on the design: dose 3 mg/kg, route intravenous. The following applies: in vivo, read-out: Vdss.
Data set [12] can be described thus: Metabolic stability in human hepatocytes assessed as compound remaining after 2 hrs. Type of data set: ADME, cell-based, Hepatocyte. The note with it: read-out: Stability.
Data set [13] can be described thus: Oral bioavailability in Lewis rat at 10 mg/kg. Type of data set: ADME, organism-based. The following applies: in vivo.
Data set [14] in a line: Metabolic stability in rat hepatocytes assessed as compound remaining after 2 hrs. Type of data set: ADME, cell-based, Hepatocyte. The following applies: read-out: Stability.

For `O=C1N(Cc2ccc(Cl)cc2)c2ccccc2C1(O)c1ccc2c(c1)OCO2` (configuration not stated), in data set [1], the Papp A→B worked out at 9 ×10⁻⁶ cm/s. Besides, the Papp B→A in [2] worked out at 10.9 ×10⁻⁶ cm/s.
`O=C1N(Cc2ccc(Cl)cc2)c2ccccc2C1(O)c1ccc2c(c1)OCCO2` (configuration not stated): the Papp A→B in data set [1] is 1.9 ×10⁻⁶ cm/s. In data set [2], the Papp B→A is 3.5 ×10⁻⁶ cm/s.
The matching figures for `O=C1N(Cc2ccc(Cl)cc2)c2ccccc2C1(O)c1ccccc1` (configuration not stated): 13.1 ×10⁻⁶ cm/s and 12.5 ×10⁻⁶ cm/s.
For `O=C1N(CCC2CC2)c2ccccc2C1(O)c1ccc2c(c1)OCO2` (configuration not stated), the Papp A→B in data set [1] stood at 19.9 ×10⁻⁶ cm/s. In addition, the Papp B→A in data set [2] was 19.8 ×10⁻⁶ cm/s.
The matching figures for `CCCCCN1C(=O)C(O)(c2ccc3c(c2)OCO3)c2ccccc21` (configuration not stated): 28.9 ×10⁻⁶ cm/s and 25.4 ×10⁻⁶ cm/s.
On the same counts, the results for `CCC(C)CCN1C(=O)C(O)(c2ccc3c(c2)OCO3)c2ccccc21` (configuration not stated) are 10.5 ×10⁻⁶ cm/s and 11.5 ×10⁻⁶ cm/s.
The matching figures for `COc1ccc(CN2C(=O)C(O)(c3ccc4c(c3)OCO4)c3ccccc32)cc1` (configuration not stated): 6.5 ×10⁻⁶ cm/s and 11.9 ×10⁻⁶ cm/s.
As to `O=C1N(Cc2ccccc2)c2ccccc2C1(O)c1ccc2c(c1)OCO2` (configuration not stated), in data set [1], the Papp A→B was determined as 9.3 ×10⁻⁶ cm/s. In addition, the Papp B→A in data set [2] worked out at 13.6 ×10⁻⁶ cm/s.
Consider `O=C1N(Cc2ccc3c(c2)OCO3)c2ccccc2C1(O)c1ccc2c(c1)OCO2` (configuration not stated), for which the Papp A→B in data set [1] came out at 7.7 ×10⁻⁶ cm/s. Moreover, in [2], the Papp B→A was 12.1 ×10⁻⁶ cm/s.
`O=C1N(CC2CCC2)c2ccccc2C1(O)c1ccc2c(c1)OCO2` (configuration not stated): the Papp A→B in [1] is 21.7 ×10⁻⁶ cm/s. In data set [2], the Papp B→A stood at 21.1 ×10⁻⁶ cm/s.
The matching figures for `O=C1N(Cc2ccc(C(F)(F)F)cc2)c2ccccc2C1(O)c1ccc2c(c1)OCO2` (configuration not stated): 5.4 ×10⁻⁶ cm/s and 7.9 ×10⁻⁶ cm/s.
For the molecule `CCCCCN1C(=O)C(C)(c2ccc3c(c2)OCO3)c2ccccc21` (configuration not stated), the Papp A→B in data set [1] is 2.4 ×10⁻⁶ cm/s. In data set [2], the Papp B→A worked out at 3.6 ×10⁻⁶ cm/s.
The matching figures for `CCCCCN1C(=O)C(N)(c2ccc3c(c2)OCO3)c2ccccc21` (configuration not stated): 22 ×10⁻⁶ cm/s and 22.3 ×10⁻⁶ cm/s.
Turning to `CCCCCN1C(=O)C2(COc3cc4c(cc32)OCO4)c2ccccc21` (configuration not stated), the remaining at 2 h is 46% in [3], 34% in [12] and 21% in data set [14]. Moreover, the Cmax is 35 ng/mL in [4] and 953 ng/mL in data set [10]. The molecule also gave a clearance in data set [5] of 157 mL/min/kg. The Tmax in data set [6] worked out at 0.33 h. The results for the AUC(0-t) in data set [7] and in data set [9] were 143 ng·h/mL and 320 ng·h/mL, respectively. The molecule also gave a half-life in data set [8] of 2.6 h. In data set [1], the Papp A→B worked out at 5.9 ×10⁻⁶ cm/s. The Vd in data set [11] was 35 L/kg. Besides, the Papp B→A in data set [2] came to 7.2 ×10⁻⁶ cm/s. The same molecule registered a bioavailability in data set [13] of 13%.
On to `CCCCCN1C(=O)C2(CCc3cc4c(cc32)OCO4)c2ccccc21` (configuration not stated), for which the Papp A→B in data set [1] worked out at 1.1 ×10⁻⁶ cm/s. Besides, the Papp B→A in data set [2] is 1.6 ×10⁻⁶ cm/s.
